{"source": "patent US20040018500A1", "about": "“Methods and systems for analyzing complex biological systems” (priority 2001, published 2004)", "key": {"[1]": {"test_system": "Saccharomyces cerevisiae wild type strain BY4743", "assay": "AF1 gene expression analysis (microarray) of yeast treated with antifungal drugs", "assay_type": "cell-based", "details": "p < 0.05; KEGG pathway mapping", "method": "Saccharomyces cerevisiae wild type strain BY4743 was purchased from American Type Culture Center (ATCC, Manassas, Va.). The yeast strain was grown in YPD or SD media. […] The cultures started from fresh single colonies were grown in 1.0 ml YPD overnight at 30° C. […] The OD600 was adjusted to 1.0 with YPD media, then 2.0 ml of each was inoculated into three 250 ml flasks, each containing 50 ml of SD media. […] The cells were kept growing for another two hours, then collected by centrifugation at 4000 rpm for 5 minutes at 4° C. Pellets were washed once with ice-cold water, then were lyophilized overnight at 4° C. […] RNA quality was determined using the Bioanalyzer 2100 and the RNA 6000 assay (Agilent Technologies, Palo Alto, Calif.) according to manufacturer's instructions. RNA concentrations were determined spectrophotometrically by measuring the absorption at 260 nm in an Ultrospec 2000 (Pharmacia Biotech, Piscataway, N.J.). […] Labeled cRNAs were evaluated using the RNA 6000 assay on the Agilent Bioanalyzer 2100. Labeled cRNA concentrations were determined spectrophotometrically by measuring the absorption at 260 nm in an Ultrospec 2000 (Pharmacia Biotech, Piscataway, N.J.). […] Each feature was determined from an array's associated pattern file and a detection algorithm. […] Data was evaluated after combining results from fluor reversal replicate hybridizations. […]"}, "[2]": {"test_system": "Saccharomyces cerevisiae wild type strain BY4743", "assay": "AF1 combined gene expression and metabolite data mapped to KEGG reactions and pathways", "assay_type": "cell-based", "text": "In AF1, two different technologies were utilized: gene expression analysis (for examination of mRNA expression) and metabolite analysis. […] As noted previously, existing metabolic databases may be helpful in practicing the methods and systems of the present invention, but many databases include limitations that make their use in data analysis and pathway mapping less than straightforward. […] This caveat to KEGG makes it difficult to pinpoint the correct pathway when attempting to link a gene to a specific pathway. […] The pathway score indicates how meaningful the mapping is, or how likely it is to be correctly indicative of the pathway involved in the perturbation under examination. The method provides a pathway score based on perturbation levels of genes and/or compounds and the information content of each gene and/or compound in the pathway, i.e., a pathway score indicates the extent to which other pathways are mapped to a gene/compound. For example, imagine that two genes are perturbed in a particular experiment. One gene maps to only one pathway, giving a high degree of probability that the perturbed pathway is the one identified in the mapping. The second gene maps to three pathways. In the later example, there is only one-third the probability that the pathway identified in the mapping is the one perturbed. The present invention provides a method for calculating the pathway scores, so that more weight is given to a score of a gene or compound that maps to only one pathway than to a score of a gene or compound that maps to multiple pathways. […] Where n=the total number of genes in the pathway; ipath—count=the number of pathways containing a gene; and j=the number of genes in the pathway that are perturbed. Another factor to be considered when weighting a pathway score is the degree of perturbation. Degree of perturbation can be calculated, for example, based on a number of standard deviations from a norm, and included in an equation such as the one shown above, so that not only the number of pathways is taken into account, but also accounts for the amount of gene transcript or compound present as compared to a control. Compounds were also linked to pathways using the KEGG database. […] Of the 676 compounds under consideration, 77 were detected in the AF1 samples. […] The multiple mapping feature of KEGG makes it difficult to pinpoint the correct pathway when trying to link a compound to a specific pathway. […] A pathway score calculation is applied to the compounds to account for both information content (number of pathways a compound maps to) and perturbation level. The data were then combined to determine the number of reactions showing an enzyme and at least one compound perturbed, and to determine the number of pathways having at least one enzyme and one perturbed compound perturbed. The results of the analysis are represented in Tables 16 and 17, and were difficult to interpret, illustrating that the ability to draw conclusions from compound mapping to pathways is limited when absent additional data."}}}
{"smiles": "C[C@@H]1[C@H](O)[C@@H](C)/C=C/C=C/C=C/C=C/C=C/C=C/C=C/[C@H](O[C@@H]2O[C@H](C)[C@@H](O)[C@H](N)[C@@H]2O)C[C@@H]2O[C@](O)(C[C@@H](O)C[C@@H](O)[C@H](O)CC[C@@H](O)C[C@@H](O)CC(=O)O[C@H]1C)C[C@H](O)[C@H]2C(=O)O", "note": "[Amphoteracin B]", "values": [{"measurement": "# Pathways Affected by at Least One Gene", "setting": "[1]", "result": 97}, {"measurement": "Number Of Pathways Having at Least One Enzyme and One Compound Perturbed (# Reactions)", "setting": "[2]", "result": 37}, {"measurement": "Number of Reactions Having an Enzyme and at Least One Compound Perturbed", "setting": "[2]", "result": 54}]}
